Results: US9650399B2, “Salicylic acid derivatives, pharmaceutically acceptable salt thereof, composition thereof and method of use thereof” (The Governing Council of the University of Toronto, priority 2012, dated 2017)
“Also recorded” adds a separate entry of the source.

What was measured:
[1] = test system: multiple myeloma tumor cell lines; assay: MTT cytotoxicity in multiple myeloma cell lines; format: cell-based; conditions: 12 of 15 multiple myeloma cell lines, read-out: ED50 (the source's name)
Protocol: For assessing MM cell viability, HMCL cells were seeded in 96-well plates in triplicate at a density of 20,000 cells/well and incubated with increasing concentrations of 16i and 21h or DMSO control and cell viability assessed by MTT (3-(4,5-dimethylthiazol)-2,5-diphenyl tetrazolium) colorimetric analysis. Results are reported at FIG. 12.

[2] = test system: 101 diverse kinases; assay: KINOMEscan kinome screen; format: binding; conditions: 500 nM; hit defined as >35% inhibition
Protocol: […] The test compound was evaluated at a single dose of 500 nM. Kinase-tagged T7 phage strains were grown in parallel in 24-well blocks in an E. coli host derived from the BL21 strain. E. coli were grown to the log-phase and were then infected with T7 phage from a frozen stock (multiplicity of infection=0.4) and incubated at 32° C. with shaking until lysis (90-150 minutes). Lysates were centrifuged (6,000×g) and filtered (0.2 μm) to remove any cell debris. The remaining kinases were produced in HEK-293 cells and were then tagged with DNA for easy quantitative PCR (qPCR) detection. […] The liganded beads were blocked with excess biotin and washed with blocking buffer (SeaBlock (Pierce), 1% BSA, 0.05 Tween 20, 1 mM DTT) in order to remove unbound ligand and to also reduce non-specific phage binding. […] All reactions were performed in polypropylene 384-well plates in a final volume of 40 μL. […] Kinase concentration in eluates was measured by qPCR (FIG. 6).

[3] = test system: BT73 brain tumours; assay: BT73 orthotopic xenograft, in vivo on-target assessment; conditions: 10 mg/kg i.p., 10 doses
[4] = test system: 127EF; assay: alamarBlue cell viability, BTSC 127EF; format: cell-based; conditions: Homo sapiens, read-out: EC50 against 127EF
Excerpt: . BTSC spheres were dissociated to single cells with the enzyme Accumax (Innovative Technologies), seeded at 1500 cells/96-well and treated with drug or vehicle (DMSO) one day after plating. Cytotoxicity studies were repeated independently at Sickkids Hospital using BTSC lines 25M, 67EF, 73EF, 84EF and 127EF. BTSC spheres were dissociated to single cells as above and plated in 96 well plates in triplicate at 3000 cells/96-well. In both sets of experiments drugs were used as serial dilutions within the range of 5 μM to 100 nM in the first set and 25 μM to 10 nM. Cell viability following drug treatment was assessed three days later using the ALAMARBLUE™ assay (Invitrogen) according to the manufacturer's instructions. All culture experiments were performed in triplicate with a minimum of three wells per condition. Table 4 below illustrates a screen of the library against a number of BTSCs using ALAMARBLUE™ assay.

[5] = test system: patient-derived pancreatic cancer line (Panc10.05); assay: MTS cell survival, pancreatic cancer line; format: cell-based; conditions: Homo sapiens, Panc1005, Panc10.05, 72 h, read-out: ED50 (IC50)
Protocol: Low passage patient-derived pancreatic cancer line (Panc10.05) was plated in 96-well plates (3×10^3 per well) and allowed to attach overnight. STAT3 inhibitors 31, 41, 42 and 38 were added at indicated concentrations. Cell survival was measured 72 h after drug addition with the MTS assay.

[6] = test system: ErbB2 mammary breast tumour cell lines (NIC); assay: CyQuant proliferation assay in ErbB2 mammary tumour cell lines; format: cell-based
Protocol: Compounds were assessed for inhibition of cell proliferation in ErbB2 mammary breast tumour cell lines (NIC) containing the activated form of ErbB2 using a CyQuant Assay. […] Three individual Mouse Mammary Tumour Virus ErbB2 mammary tumour cell lines (NIC) were resuspended in 10% FBS plus single quots DMEM media to a final concentration of 40,000 cells per 1 mL. Cells were plated at a concentration of 4,000 cells in 100 μL of media per well on 96 well NUNC plates and incubated for 24 h hours at 37° C. plus 5% CO2. […] Each condition was repeated in quadruplicate. At predetermined time points; at treatment, 24 h, 48 h and 72 h post treatment, the media was removed from the cells and the plates were stored at −80° C. wrapped in tin foil. When needed, all the plates were thawed to room temperature. Invitrogen's CyQuant Cell Proliferation Assay kit was used to measure DNA content. Following their directions, the cell lysis buffer was diluted 1:20 with water and then the CyQuant GR solution 1:400 in the lysis buffer. […] The plates were then incubated for 2-5 minutes protected from light, then read on a fluorescence microplate reader with filters for 480 nm excitation and 520 nm emission maxima. Quadruplicates were averaged and the error bars represent the S.E.M. In some cases the absorbance was normalized to the DMSO control.

[7] = test system: STAT3 phosphorylation (Y705); assay: Western blot of IL-6 stimulated pSTAT3 in pancreatic cancer cells; format: cell-based; conditions: 1 hr pretreatment, IL-6 50 ng/mL 15 min, Pa03C
Protocol: Low passage patient-derived pancreatic cancer lines (Pa03C and Panc10.05) were plated in 6-well plates (2×10^5 and 8×10^4, respectively) and allowed to attach overnight. STAT3 inhibitors were added for 1 hr prior to IL-6 stimulation (50 ng/mL, 15 min). STAT3 inhibitors were present during IL-6 stimulation. Cells were harvested and lysed for Western blotting. phospho-Specific STAT3 antibody (Y705) was used to look at STAT3 phosphorylation and total STAT3 antibody was used to normalize activation of STAT3. Antibodies were from Cell Signaling and used at a 1:1000 dilution.

CN(CC(=O)N(Cc1ccc(C2CCCCC2)cc1)c1ccc(C(=O)O)cc1)S(=O)(=O)c1c(F)c(F)c(F)c(F)c1F [Compound 31, 4-(N-(4-cyclohexylbenzyl)-2-(2,3,4,5,6-pentafluoro-N-methylphenylsulfonamido)acetamido)benzoic acid]
EC50 [1]: 2 to 6 µM
off-target kinase activity, kinome screen [2]: negligible effects; also recorded: does not inhibit any of the 101 kinases
activated phospho-STAT immunohistochemical staining [3]: reduced immunohistochemical staining
apoptosis, TUNEL staining [3]: Increased TUNEL staining
expression of proliferation marker Ki67 [3]: Decreased expression of proliferation marker Ki67
tumour cells, hematoxylin/eosin staining [3]: significant decrease in tumour cells
EC50 [4]: 66 ± 33.9 nM
IC50 [5]: 6.2 µM
cell proliferation in 2071 NIC cells ([6]; 5 μM, CyQuant): completely inhibiting cell proliferation
potency in comparison with BP1-102 ([6]; NIC cell lines 2071, 8518 and 9822): more potent
de novo phosphorylation of STAT3 [7]: potently inhibits de novo phosphorylation of STAT3 protein
